Where a name gives a salt, the structure may show the parent alone.
The compounds below were run on RS4;11 leukaemia tumour line (assay: In vitro cytotoxicity (Microculture Tetrazolium Assay, 48 hours)). Details: Homo sapiens, RS4;11 cells, 48 hours exposure, MTT, concentration that inhibits cell viability by 50%, read-out: IC50 (nM) MTT RS4.
Type: cell-based
Procedure: The cytotoxicity studies were carried out on the RS4;11 leukaemia tumour line.
The cells are distributed onto microplates and exposed to the test compounds for 48 hours.

In order of falling IC50:
1. COCCN(C)C[C@@H]1Cc2ccccc2CN1C(=O)c1cc2c(cc1-c1cc(C(=O)N(c3ccccc3)c3ccc(O)cc3)c3n1CCCC3)OCO2 [Example 146, N-(4-Hydroxyphenyl)-3-(6-{[(3S)-3-{[(2-methoxyethyl)(methyl)amino]-methyl}-3,4-dihydroisoquinolin-2(1H)-yl]carbonyl}-1,3-benzodioxol-5-yl)-N-phenyl-5,6,7,8-tetrahydroindolizine-1-carboxamide hydrochloride]  153 nM
2. O=C(c1cc(-c2cc(Cl)ccc2C(=O)N2Cc3ccccc3C[C@H]2CN2CCOCC2)n2c1CCCC2)N(c1ccc(O)cc1)c1cncnc1 [Example 141, 3-(5-Chloro-2-{[(3S)-3-(morpholin-4-ylmethyl)-3,4-dihydroisoquinolin-2(1H)-yl]carbonyl}phenyl)-N-(4-hydroxyphenyl)-N-(pyrimidin-5-yl)-5,6,7,8-tetrahydroindolizine-1-carboxamide hydrochloride]  72.5 nM
3. O=C(c1cc(-c2cc(Cl)ccc2C(=O)N2Cc3ccccc3C[C@H]2CN2CCOCC2)n2c1CCCC2)N(c1ccc(O)cc1)c1cccnc1 [Example 142, 3-(5-Chloro-2-{[(3S)-3-(morpholin-4-ylmethyl)-3,4-dihydroisoquinolin-2(1H)-yl]carbonyl}phenyl)-N-(4-hydroxyphenyl)-N-(pyridin-3-yl)-5,6,7,8-tetrahydroindolizine-1-carboxamide bis(hydrochloride)]  66.1 nM
4. Cl.[2H]C1([2H])Oc2cc(C(=O)N3Cc4ccccc4C[C@H]3CN3CCOCC3)c(-c3cc(C(=O)N(c4ccccc4)c4ccc(O)cc4)c4n3CCCC4)cc2O1 [Example 38, N-(4-Hydroxyphenyl)-3-{2,2-dideuterio-6-[((3S)-3-(4-morpholinylmethyl)-3,4-dihydro-2(1H)-isoquinolinyl)carbonyl]-1,3-benzodioxol-5-yl}-N-phenyl-5,6,7,8-tetrahydro-1-indolizine carboxamide hydrochloride]  61.8 nM
5. O=C(c1cc(-c2cc3c(cc2C(=O)N2Cc4ccccc4C[C@H]2CN2CCOCC2)OCO3)n2c1CCCC2)N(c1ccccc1)c1ccc(O)cc1 [Example 1, N-(4-Hydroxyphenyl)-3-{6-[((3S)-3-(4-morpholinylmethyl)-3,4-dihydro-2(1H)-isoquinolinyl)carbonyl]-1,3-benzdioxol-5-yl}-N-phenyl-5,6,7,8-tetrahydro-1-indolizine carboxamide hydrochloride]  60.1 nM
6. O=C(c1cc(-c2cc(Cl)ccc2C(=O)N2Cc3ccccc3C[C@H]2CN2CCOCC2)n2c1CCCC2)N(c1ccncc1)c1ccc(O)cc1 [Example 144, 3-(5-Chloro-2-{[(3S)-3-(morpholin-4-ylmethyl)-3,4-dihydroisoquinolin-2(1H)-yl]carbonyl}phenyl)-N-(4-hydroxyphenyl)-N-(pyridin-4-yl)-5,6,7,8-tetrahydroindolizine-1-carboxamide bis(hydrochloride)]  59.9 nM
7. COc1ccc(N(C(=O)c2cc(-c3cc(Cl)ccc3C(=O)N3Cc4ccccc4C[C@H]3CN3CCOCC3)n3c2CCCC3)c2ccc(O)cc2)cc1F [Example 145, 3-(5-Chloro-2-{[(3S)-3-(morpholin-4-ylmethyl)-3,4-dihydroisoquinolin-2(1H)-yl]carbonyl}phenyl)-N-(3-fluoro-4-methoxyphenyl)-N-(4-hydroxyphenyl)-5,6,7,8-tetrahydroindolizine-1-carboxamide hydrochloride]  28.9 nM
8. Cn1ccc2cc(N(C(=O)c3cc(-c4cc5c(cc4C(=O)N4Cc6ccccc6C[C@H]4CN4CCOCC4)OCO5)n4c3CCCCC4)c3ccc(O)cc3)ccc21 [Example 84, hydrochloride]  20.6 nM

Same assay, conditions: RS4;11 cells, 48 hours exposure, MTT, concentration that inhibits cell viability by 50%, read-out: IC50 (nM) MTT RS4

With `CCOc1ccc(C(=O)N2Cc3ccccc3C[C@H]2CN2CCOCC2)c(-c2cc(C(=O)N(c3ccc(O)cc3)c3ccc4c(ccn4C)c3)c3n2CCCC3)c1` [Example 36, 3-{5-Ethoxy-2-[((3S)-3-(4-morpholinylmethyl)-3,4-dihydro-2(1H)-isoquinolinyl)carbonyl]phenyl}-N-(4-hydroxyphenyl)-N-(1-methyl-H-indol-5-yl)-5,6,7,8-tetrahydro-1-indolizine carboxamide hydrochloride] the IC50 was 135 nM.

From patent US9120791B2, “Indolizine compounds, a process for their preparation and pharmaceutical compositions containing them” (LES LABORATOIRES SERVIER, priority 2012, dated 2015)
